The text below walks through data of patent US9006185B2, “Use of cell-permeable peptide inhibitors of the JNK signal transduction pathway for the treatment of various diseases” (Xigen Inflammation Ltd., priority 2008, dated 2015).

For assay [1], the system named is Varicella-Zoster Virus (VZV). The experiment in a line: VZV-BAC-Luc replication in HFFs, luciferase assay. Format: cell-based, human. Particulars: 24 h, 0.25, 0.5, 1.0 μM tested. Here is the method:
Virus yield was measured by luciferase assay. Samples were in triplicate and the average luminescence is shown; error bars represent the standard deviation of the mean.

The next assay relates to hAPP Tg mice. The experiment in a line: Morris Water Maze in hAPP transgenic mice. Format: in vivo. Here is the method:
i) Introduction • The study was designed to evaluate the efficacy of the test substance (XG-102, SEQ ID NO: 11) on behavioral, biochemical and histological markers using 5 months (±2 weeks) old female hAPP Tg mice. Therefore, mice were treated every two or three weeks up to 4 months and in the end of the treatment period behavior was evaluated in the Morris Water Maze. At sacrifice brain, CSF and blood were collected. Aβ40 and Aβ42 levels were determined in four different brain homogenate fractions as well as in CSF of Tg mice. Plaque load was quantified in the cortex and the hippocampus of 8 Tg animals per treatment group.
ii) Animals • Female Tg mice with a C57BL/6×DBA background and an age of 5 months (±2 week) were randomly assigned to treatment groups 1 to 3 (n=12). […]
v) Morris Water Maze (MWM) • The Morris Water Maze (MWM) task was conducted in a black circular pool of a diameter of 100 cm. […] For the quantification of escape latency (the time [second]—the mouse needed to find the hidden platform and therefore to escape from the water), of pathway (the length of the trajectory [meter] to reach the target) and of the abidance in the goal quadrant a computerized tracking system was used. […] The camera detected the signal of the light emitting diode (LED), which was fixed with a little hairgrip on the mouse's tail. […]

A further assay deals with Jurkat cells. Nature of the assay: PMA & ionomycin-induced cytokine production in Jurkat cells. Format: cell-based.

Turning to `CC(C)C[C@@H](NC(=O)[C@@H](Cc1ccccc1)NC(=O)[C@H]1CCCN1C(=O)[C@@H](CCC(N)=O)NC(=O)[C@H](NC(=O)[C@H]1CCCN1C(=O)[C@@H](CCCNC(=N)N)NC(=O)[C@@H](CO)NC(=O)[C@@H](CCC(N)=O)NC(=O)[C@H](N)CC(=O)O)C(C)C)C(=O)N[C@H](CC(N)=O)C(=O)N[C@H](CC(C)C)C(=O)N[C@@H](C(=O)N[C@@H](C(=O)N1CCC[C@@H]1C(=O)N[C@H](CCCNC(=N)N)C(=O)N[C@H](CCCCN)C(=O)N1CCC[C@@H]1C(=O)N[C@H](CCCNC(=N)N)C(=O)N1CCC[C@@H]1C(=O)N1CCC[C@@H]1C(=O)N[C@H](CCCNC(=N)N)C(=O)N[C@H](CCCNC(=N)N)C(=O)N[C@H](CCCNC(=N)N)C(=O)N[C@H](CCC(N)=O)C(=O)N[C@H](CCCNC(=N)N)C(=O)N[C@H](CCCNC(=N)N)C(=O)N[C@H](CCCCN)C(=O)N[C@H](CCCCN)C(=O)N[C@H](CCCNC(=N)N)C(=O)NCC(=O)O)[C@H](C)O)[C@H](C)O` [XG-102], the “concentration preventing VZV replication (lowest concentration tested)” value in assay [1] was at most 0.25 µM. Also, the “learning performance in the MWM” value with hAPP Tg mice (0.1 mg/kg) is “a tendency to have worse learning performance between day 1 and day 4”. For the same compound, the “spatial learning in the MWM” value in the assay on hAPP Tg mice (0.1 mg/kg every two weeks or 10 mg/kg every three weeks s.c., four months) is listed as “remained widely uninfluenced”. Further, the “PMA & ionomycin-induced IFNg, IL-6 and IL-2 production” value in the assay on Jurkat cells is “inhibits cytokine release in both myeloid and lymphoid cell lines”.
